Data reported in the supplement of paper PMC10307832.

How the values were obtained:
Test in all cases: relative viability (nuclei count vs DMSO), 5 days (fraction); higher = more cells survive
[1] = compound: C1=CC=C(C(=C1)C2=CC=C(C=C2)C3=CSC4=C3C(=C(C(=O)N4)C#N)O)O + CC(C)C[C@H](NC(=O)[C@H](Cc1ccccc1)NC(=O)c1cnccn1)B(O)O [Bortezomib] (partner 0.002 µM)
In short: (§1)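 Five library-drug doses in √10 steps were combined with a fixed anchor-drug dose, or a single drug was given alone, by pin tool to lung cancer cell lines in 1536-well plates the day after seeding. Nuclei were stained and counted after 5 days. Relative viability is the nuclei count in treated wells over that in vehicle wells, taken as the median of duplicate plates.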

TGX 221 + Pemetrexed = compound: CC1=CN2C(=O)C=C(N=C2C(=C1)C(C)NC3=CC=CC=C3)N4CCOCC4 [TGX 221] + Nc1nc2[nH]cc(CCc3ccc(C(=O)N[C@@H](CCC(=O)O)C(=O)O)cc3)c2c(=O)[nH]1 [Pemetrexed] (partner 0.2 µM)
In short: as §1

Ricolinostat + OSI-027 = compound: O=C(CCCCCCNC(=O)c1cnc(N(c2ccccc2)c2ccccc2)nc1)NO [Ricolinostat] + COc1cccc2cc(-c3nc([C@H]4CC[C@H](C(=O)O)CC4)n4ncnc(N)c34)[nH]c12 [OSI-027] (partner 0.5 µM)
In short: as §1

[2] = compound: C1=CC=C(C(=C1)C2=CC=C(C=C2)C3=CSC4=C3C(=C(C(=O)N4)C#N)O)O + C[C@]1(O)C[C@@H](c2nc(-c3ccc4ccc(-c5ccccc5)nc4c3)c3c(N)nccn32)C1 [Linsitinib] (partner 1 µM)
In short: as §1

Cell Line | relative viability ([1]; first compound 0.08 µM) | relative viability ([1]; first compound 0.253 µM) | relative viability ([1]; first compound 0.8 µM) | relative viability ([1]; first compound 2.53 µM) | relative viability ([1]; first compound 8 µM) | relative viability (TGX 221 + Pemetrexed; first compound 0.08 µM) | relative viability (TGX 221 + Pemetrexed; first compound 0.253 µM) | relative viability (TGX 221 + Pemetrexed; first compound 0.8 µM) | relative viability (TGX 221 + Pemetrexed; first compound 2.53 µM) | relative viability (TGX 221 + Pemetrexed; first compound 8 µM) | relative viability (Ricolinostat + OSI-027; first compound 0.08 µM) | relative viability (Ricolinostat + OSI-027; first compound 0.253 µM) | relative viability (Ricolinostat + OSI-027; first compound 0.8 µM) | relative viability (Ricolinostat + OSI-027; first compound 2.53 µM) | relative viability ([2]; first compound 0.08 µM) | relative viability ([2]; first compound 0.253 µM) | relative viability ([2]; first compound 0.8 µM) | relative viability ([2]; first compound 2.53 µM) | relative viability ([2]; first compound 8 µM)
NCI-H838 | 0.776 | 0.816 | 1.03 | 0.715 | 0.634 | 0.255 | 0.232 | 0.235 | 0.232 | 0.231 | 0.302 | 0.383 | 0.457 | 0.519 | 0.738 | 1.22 | 1.08 | 0.988 | 1.04
NCI-H727 | 0.643 | 1.18 | 0.986 | 0.714 | 0.747 |  |  |  |  |  | 0.389 | 0.671 | 0.551 | 0.657 | 0.242 | 0.238 | 0.284 | 0.237 | 0.237
UMC-11 | 0.519 | 0.742 | 0.56 | 0.8 | 0.487 | 0.677 | 0.717 | 0.788 | 0.815 | 0.823 | 0.406 | 0.517 | 0.487 | 0.235 | 0.834 | 0.738 | 1.11 | 1.24 | 0.875
CAL-12T |  | 0.898 | 0.911 | 0.936 | 0.804 | 1.12 | 0.976 | 1.21 | 1.25 | 1.17 | 0.412 | 0.717 | 0.617 | 0.715 | 0.636 | 1.12 | 0.762 | 0.907 | 0.787
NCI-H1755 | 0.954 | 1.04 | 0.872 | 0.978 | 0.814 | 0.461 | 0.344 | 0.38 | 0.361 | 0.39 | 0.538 | 0.791 | 0.717 | 0.62 | 0.934 | 1.17 | 0.889 | 1.19 | 0.97
NCI-H1651 | 0.866 | 0.914 | 1.01 | 1.02 | 0.834 | 0.54 | 0.628 | 0.438 | 0.517 | 0.586 | 0.607 | 0.651 | 0.603 | 0.618 | 0.807 | 0.9 | 1.02 | 0.868 | 0.788
NCI-H2170 |  |  |  |  |  | 0.263 | 0.252 | 0.213 | 0.271 | 0.268 | 0.656 | 0.718 | 0.725 | 0.891 |  |  |  |  | 
NCI-H1915 | 0.768 | 0.993 | 1.06 | 1.11 | 0.831 | 0.459 | 0.437 | 0.526 | 0.452 | 0.516 | 0.525 | 0.65 | 0.623 | 0.421 | 1.2 | 1.15 | 1.08 | 1.19 | 1.01
EPLC-272H |  | 0.973 | 0.852 | 0.858 | 0.652 | 0.392 | 0.279 | 0.353 | 0.295 | 0.303 | 0.256 | 0.305 | 0.273 | 0.263 |  | 1.46 | 1.23 | 1.24 | 0.888
